The source of these data is US4707495A, “Peptic ulcer treatment method” (Ortho Pharmaceutical, priority 1985, dated 1987).

In one experiment the test system is submucosal lesions. Put plainly: Cytoprotection: inhibition of submucosal gastric lesions induced by oral 50 percent ethanol. The following applies: for Percent Inhibition of Submucosal Lesions, Oral: 2 percent aqueous ethanol vehicle; for Percent Inhibition of Submucosal Lesions, Topical: topical to shaved skin, 25 percent ethanolic water; for cytoprotection when applied topically (in words): topical, at the same unit dose as effective orally. The format is in vivo, Male Charles River rats. As to the method: Male Charles River rats weighing about 200 g each were fasted overnight, but were allowed water ad libitum. Rats used for the topical administration of this invention were shaved on their dorsal sides one day prior to being used as host mammals.
Compositions containing the active ingredient were prepared for oral administration by dissolving a prostaglandin in a 2 percent aqueous ethanolic solution that was administered in a dose volume of 0.2 milliliters per kilogram (ml/kg) of body weight at the unit dosages shown in Table 1 hereinafter. […] A fixed concentration for each dose was applied to the skin in a volume of 0.2 ml per rat.
Gastric lesions were induced by oral administration of 1.0 ml of a 50 percent ethanolic water solution that was administered one hour after administration of each of the active ingredients. The rats were sacrificed by asphyxiation one hour after gastric lesion induction using carbon dioxide. The rat stomachs were then removed, inflated with water, opened along the greater curvature, and were laid out on a flat surface. The presence of mucosal bleeding was noted, the mucosal layers were wiped, and the presence or absence of hemorrhagic sites was recorded.
The incidences of lesions compared to controls were statistically analyzed by either the method of Chi-square using Yate's correction or Fisher's Exact Probability Test.

Experiment [1] concerns gastric acid secretion. The experiment in a line: Inhibition of gastric acid secretion (pylorus ligation). The format is in vivo, Male Charles River CD rats. As to conditions: for Percent Inhibition of Acid, Intraduodenal / Percent Inhibition of Acid, Topical: 4 h after pylorus ligation; for Percent Inhibition of Acid, Intraduodenal: 2 percent ethanolic water; for Percent Inhibition of Acid, Topical: topical to shaved skin, 25 percent ethanolic water. As to the method:
Male Charles River CD rats weighing about 180 g each were shaved on their dorsal sides and derpived of food for a time period of 18 hours prior to use. Water was permitted ad libitim during that time, but was removed during the times at which the rats were studied as host mammals.
Compositions containing the active ingredient were administered intraduodenally at 1 ml/kg or were applied to directly contact the shaved skin at 0.2 ml/animal at the time the pylorus of each animal was ligated.
The animals were sacrificed by asphyxiation four hours after pylorus ligation using carbon dioxide. The gastric contents were collected in graduated centrifuge tubes that were centrifuged. The centrifugally separated supernatents were then analyzed for volume and acidity. Acid concentration (secretion) was determined by electrometric titration of a 1 ml aliquot of the recovered gastric juice against 0.1N NaOH to a pH value of 7.4.
Treated groups were compared to the control and statistical differences were declared by the method of least significant differences.
(treatment-control)/control×100%

A further experiment deals with gastrointestinal mucosa. The following applies: in vivo; cited from earlier work.
Experiment [2] concerns gastric acid secretion. As to conditions: laboratory animals and man; cited from earlier work.
For experiment [3], the system named is gastric acid secretion. The following applies: given orally to rats, at any dose; cited from earlier work.
The subject of experiment [4] is indomethacin-induced gastric lesions. The following applies: oral administration; cited from earlier work.
The mark [5] stands for this setting: 5 μg/kg (estimate based on 200 g rat).
[6] abbreviates: 25 μg/kg, lesions by 50 percent ethanol 1 h after agent.
Setting [7] is: 25 μg/kg (estimate based on 200 g rat).

Consider `CCCCC(C)(C)[C@H](O)/C=C/[C@H]1[C@H](O)CC(=O)[C@@H]1C/C=C\CCCC(=O)O` [dmPGE2, (5Z,11α,13E,15R)-11,15-dihydroxy-16,16-dimethyl-9-oxo-prosta-5,13-1-o ic acid acid], for which the “Percent Inhibition of Submucosal Lesions, Oral” value (“Percent Inhibition … Oral” below) in the experiment on submucosal lesions (5 μg/kg) came to 100%. For the same compound, the “Percent Inhibition of Submucosal Lesions, Topical” value with submucosal lesions (setting [5]) is reported as 100%. Besides, the “cytoprotection when applied topically (in words)” value (“cytoprotection” for short) in the experiment on submucosal lesions was “effective at the same oral dose when applied externally”. In addition, in the experiment with gastric acid secretion [1] (1.0 mg/kg), the “Percent Inhibition of Acid, Intraduodenal” value was found to be 29% and the “Percent Inhibition of Acid, Topical” value amounted to 26%.
For `CN/C(=N/CCSCc1nc[nH]c1C)NC#N` [cimetidine], the cytoprotective activity entry in the experiment on gastrointestinal mucosa is “not cytoprotective in the models employed”.
Regarding `CCCCC(C)(O)C/C=C/[C@H]1[C@H](O)CC(=O)[C@@H]1CCCCCCCO` (stereo partly drawn) [Rioprostil, (11α,13E)-1,11,16-trihydroxy-16-methyl-prost-13-en-9-one], the “Percent Inhibition … Oral” value with submucosal lesions (setting [6]) is given as 87%. Also, the “Percent Inhibition of Submucosal Lesions, Topical” value in the experiment on submucosal lesions (setting [7]) was 75%. Further, in the experiment with submucosal lesions, the “cytoprotection” value is “effective at the same oral dose when applied externally”. In the experiment with gastric acid secretion [1] (8.0 mg/kg), the “Percent Inhibition of Acid, Intraduodenal” value was determined as 35% and the “Percent Inhibition of Acid, Topical” value worked out at 37%.
Consider `CCCCC[C@H](O)/C=C/[C@H]1[C@H](O)CC(=O)[C@@H]1CCCCCCC(=O)O` [PGE1, 9-oxo-11 alpha,15-dihydroxy-13-trans-prostenoic acid], for which, in the experiment on gastric acid secretion [2], the gastric antisecretory activity result was “have gastric antisecretory activity in both laboratory animals and man”. Moreover, the “Percent Inhibition … Oral” value in the experiment with submucosal lesions (setting [6]) amounted to 60%. Besides, the “Percent Inhibition of Submucosal Lesions, Topical” value in the experiment with submucosal lesions (setting [7]) was 10%. In addition, the “cytoprotection” value in the experiment on submucosal lesions is reported as “ineffective at providing cytoprotection when applied topically”.
In the case of `CCCCC[C@H](O)/C=C/[C@H]1[C@H](O)CC(=O)[C@@H]1C/C=C\CCCC(=O)O` [PGE2, 9-oxo-11α,15-dihydroxy-5-cis,13-transprostadienoic acid], the gastric antisecretory activity entry in the experiment on gastric acid secretion [2] was “have gastric antisecretory activity in both laboratory animals and man”. For the same compound, in the experiment with submucosal lesions (setting [6]), the “Percent Inhibition … Oral” value is 40%. The “Percent Inhibition of Submucosal Lesions, Topical” value with submucosal lesions (setting [7]) is given as 20%. In addition, in the experiment with submucosal lesions, the “cytoprotection” value is reported as “ineffective at providing cytoprotection when applied topically”.
As to `CCCCC(C)(C)C(O)/C=C/[C@H]1[C@H](C)CC(=O)[C@@H]1C/C=C\CCCC(=O)O` (relative stereo) [Trimoprostil, (±)9-oxo-11α-methyl-15-hydroxy-16,16-dimethyl-5-cis,13-trans-prost adienoic acid], in the experiment on gastric acid secretion [1] (8.0 mg/kg), the “Percent Inhibition of Acid, Intraduodenal” value came to 38% and the “Percent Inhibition of Acid, Topical” value is listed as 9%. The “inhibition of gastric acid when applied topically (in words)” value in the experiment with gastric acid secretion [1] (topical, at the unit dosage effective intraduodenally) is “ineffective at significantly inhibiting production of gastric acid, when applied topically”.
Consider `CCCCC[C@@](C)(O)/C=C/[C@@H]1[C@@H](C/C=C\CCCC(=O)O)[C@H](O)C[C@H]1O` [15(R)-15 methyl PGF2β], for which the antisecretory activity entry with gastric acid secretion [3] was “not antisecretory at any dose when given orally to rats”. Further, the cytoprotective activity entry in the experiment on gastrointestinal mucosa is listed as “cytoprotective”.
Regarding `CCCCC(C)(C)[C@H](O)/C=C/[C@H]1C=CC(=O)[C@@H]1C/C=C\CCCC(=O)O` [16,16-dimethyl PGA2], in the experiment with gastric acid secretion [3], the antisecretory activity result is given as “not antisecretory at any dose when given orally to rats”. Moreover, the cytoprotective activity entry in the experiment with gastrointestinal mucosa is reported as “cytoprotective”.
`CCCCC[C@H](O)/C=C/[C@H]1C=CC(=O)[C@@H]1CCCCCCC(=O)O` [PGA1]: in experiment [4], the “protection from indomethacin-induced gastric lesions” value is given as “does not protect rats from indomethacin-induced gastric lesions”.
With `CCCCC[C@H](O)/C=C/[C@H]1C(=O)C[C@H](O)[C@@H]1C/C=C\CCCC(=O)O` [PGD2], the “protection from indomethacin-induced gastric lesions” value in experiment [4] is listed as “does not protect rats from indomethacin-induced gastric lesions”.
Take `CCCCC(C)(O)C/C=C/[C@H]1[C@H](O)CC(=O)[C@@H]1CCCCCCC(=O)OC` (mixture of isomers) [Misoprostol, (±)(11α,13E)-11,16-dihydroxy-16-methyl-9-oxo-prost-13-en-1-oic acid methyl ester]: in the experiment with submucosal lesions (100 μg/kg), the “Percent Inhibition … Oral” value worked out at 87%. The “Percent Inhibition of Submucosal Lesions, Topical” value with submucosal lesions (100 μg/kg (estimate based on 200 g rat)) was 75%. For the same compound, the “cytoprotection” value in the experiment on submucosal lesions is recorded as “effective at the same oral dose when applied externally”. Further, in the experiment with gastric acid secretion [1] (8.0 mg/kg), the “Percent Inhibition of Acid, Intraduodenal” value was 38% and the “Percent Inhibition of Acid, Topical” value was 43%.
In the case of `C[N+]1(C)[C@@H]2C[C@@H](OC(=O)[C@H](CO)c3ccccc3)C[C@H]1[C@@H]1O[C@@H]12` (stereo in doubt) [methscopolamine bromide], in the experiment on gastrointestinal mucosa, the cytoprotective activity entry was “not cytoprotective in the models employed”.
As to `COC(=O)CCC=C=CC[C@H]1C(=O)C[C@@H](O)[C@@H]1/C=C/C(O)COc1ccccc1` (relative stereo) [Enprostil, 7-[3-hydroxy-2-(3-hydroxy-4-phenoxy-1-butenyl)-5-oxocyclopentyl]-4,5-heptad ienoic acid methyl ester], the “Percent Inhibition … Oral” value with submucosal lesions (5 μg/kg) is 100%. Further, in the experiment on submucosal lesions (setting [5]), the “Percent Inhibition of Submucosal Lesions, Topical” value is 100%. For the same compound, in the experiment on submucosal lesions, the “cytoprotection” value is “effective at the same oral dose when applied externally”. Besides, in the experiment with gastric acid secretion [1] (1.0 mg/kg), the “Percent Inhibition of Acid, Intraduodenal” value stood at 71% and the “Percent Inhibition of Acid, Topical” value was found to be 32%.
